Data reported in patent publication US6455540B1, “Methods of use of quinolone compounds against anaerobic pathogenic bacteria” (priority 1999, dated 2002).
In brackets after ≈: the same amount, converted by molar mass. Read-outs that look alike come from different tables or passages of the source.

Columns and labels:
B. distasonis = conditions: Goldstein, et al.; cited from earlier work
B. ovatus = conditions: Goldstein, et al.; cited from earlier work
[1] = test system: certain Porphyromonas strains; conditions: Goldstein, et al.; cited from earlier work
Bacteroides fragilis = conditions: Goldstein, et al.; cited from earlier work
F. ulcerans = assay: Agar dilution MIC; assay type: cell-based; conditions: Fusobacterium ulcerans
Fusobacterium naviforme = assay: Agar dilution MIC; assay type: cell-based; conditions: read-out: concentration to which strains were susceptible (MIC)
clostridial isolates = conditions: cited from earlier work
Anaerobiospirillum spp. = assay: Agar dilution MIC; assay type: cell-based
peptostreptococci = conditions: cited from earlier work
Clostridium ramosum = conditions: prior study (Goldstein, et al.), 14 isolates; cited from earlier work
[2] = test system: Porphyromonas spp. [P. asaccharolytica, P. canoris, P. gingivalis, P. macaccae]; assay: Agar dilution MIC, Porphyromonas spp. as a group; assay type: cell-based; conditions: read-out: concentration to which all strains were susceptible (MIC)
[3] = Marco, et al., 18 strains of peptostreptococci

CO/N=C1\CN(c2nc3c(cc2F)c(=O)c(C(=O)O)cn3C2CC2)CC1CN (racemic) [Gemifloxacin, (R,S)-7-(3-aminomethyl-4-methoxyiminopyrrolidin-1-yl)-1-cyclopropyl-6-fluoro-4-oxo-1,4-dihydro-1,8-naphthyridine-3-carboxylic acid]
activity (B. distasonis): only limited activity
activity (B. ovatus): only limited activity
activity [1]: showed activity
activity (Bacteroides fragilis): showed activity
MIC90 (F. ulcerans): ≥ 4 µg/mL
MIC (Fusobacterium naviforme): ≤ 2 µg/mL
maximum MIC (clostridial isolates; Cormicon and Jones, ten clostridial isolates): 2 µg/mL
concentration to which all isolates were susceptible (MIC) (clostridial isolates; Marco, et al., 19 unspecieted clostridial isolates): ≤ 2 µg/mL
MIC90 (Anaerobiospirillum spp.): ≤ 2 µg/mL
MIC90 (peptostreptococci; Cormicon and Jones, 10 strains of peptostreptococci): 2 µg/mL (≈ 5.14 µM)
MIC90 (peptostreptococci; [3]): 2 µg/mL (≈ 5.14 µM)
MIC range (peptostreptococci; [3]): 0.25 to 8 µg/mL
MIC90 (Clostridium ramosum): 8 µg/mL (≈ 20.5 µM)
MIC [2]: ≤ 0.25 µg/mL
